The values that follow are results of earlier work, collected in patent US8153109B2, “Alkylene carbonate dilution, alkylene carbonate for preparing the dilution, and aqueous reducing chemical agent” (San-Ei Kagaku Co., Ltd., priority 2006, dated 2012).

For this data set the following is noted: test day 10, emulsified chemical agent, in some cases.

Each structure is given as a SMILES string.

Consider `O=C1OCCC1S` (stereo not shown) [2-mercapto-4-butyrolactone], for which the “percent decomposition of 2-mercapto-4-butyrolactone” value is on record as “about 30%”.
